c1ccc(-n2c3ccccc3c3ccccc32)cc1
solubility (mole fraction)
Conditions | 283.15 K | 288.15 K | 293.15 K | 298.15 K | 303.15 K | 308.15 K | 313.15 K | 318.15 K | 323.15 K
in dimethyl carbonate | 0.054 | 0.0631 | 0.0771 | 0.0967 | 0.113 | 0.145 | 0.175 | 0.232 | 0.294
in ethyl acetate | 0.0902 | 0.109 | 0.125 | 0.14 | 0.162 | 0.197 | 0.238 | 0.286 | 0.337
in ethyl lactate | 0.0336 | 0.0362 | 0.0422 | 0.0502 | 0.0617 | 0.0731 | 0.0916 | 0.111 | 0.139
in isobutanol | 0.00379 | 0.00416 | 0.00494 | 0.00582 | 0.00684 | 0.00814 | 0.00922 | 0.0109 | 0.0133
in isobutyl acetate | 0.114 | 0.132 | 0.151 | 0.177 | 0.197 | 0.235 | 0.271 | 0.32 | 0.38
in isopentanol | 0.00614 | 0.00721 | 0.00852 | 0.0101 | 0.0125 | 0.0154 | 0.0201 | 0.0253 | 0.0339
in isopropyl acetate | 0.0729 | 0.0842 | 0.0983 | 0.111 | 0.133 | 0.163 | 0.198 | 0.238 | 0.291
in methyl acetate | 0.0727 | 0.0874 | 0.103 | 0.128 | 0.161 | 0.199 | 0.237 | 0.277 | 0.354
in n-butyl acetate | 0.113 | 0.129 | 0.146 | 0.167 | 0.186 | 0.225 | 0.26 | 0.306 | 0.355
in n-pentanol | 0.0091 | 0.0106 | 0.0122 | 0.0147 | 0.0173 | 0.0212 | 0.0252 | 0.0309 | 0.0417
in n-propyl acetate | 0.0761 | 0.0873 | 0.101 | 0.119 | 0.139 | 0.16 | 0.194 | 0.231 | 0.278
in sec-butanol | 0.00405 | 0.00482 | 0.00607 | 0.00774 | 0.00939 | 0.0119 | 0.0148 | 0.0202 | 0.0278
